Usually melting point stands for the temperature, or range, at which the solid turns liquid.

pEC50: −log10 of the molar value. Read-outs that look alike come from different tables or passages of the source.

Data set [1] relates to LCMV Armstrong strain (Arm53b). Kind of data set: organism not typed. Format: cell-based. The settings on record: for pEC50: Vero.
For the next data set, the system named is LCMV S RNA and NP mRNA. Format: cell-based.
Data set [2] deals with LCMV NP and L proteins (replication and transcription of RNA analog). Format: cell-based.
The next data set has as its system LCMV. The settings on record: cited from earlier work.
Where [3] appears, read: read-out: 50% effective concentration (EC50).
Where [4] appears, read: read-out: Activity (EC50 class).

In the case of `c1ccc2[nH]c(-c3nc4ccccc4[nH]3)nc2c1` [Compound 1, 1H, 1′H-[2,2′]Bibenzoimidazolyl], in data set [1], the “screening result in compound library screen” value is “hit”. For the same compound, the pEC50 in data set [1] (setting [3]) was 7.10; in data set [1] (setting [4]), over 6.00. Moreover, the “synthesis of viral S RNA and NP mRNA relative to untreated controls” value in the data set with LCMV S RNA and NP mRNA is “dramatically suppressed”. Also, the CAT reporter activity entry in data set [2] is reported as “No CAT activity was observed”. In addition, the CC50 in the data set “in vitro” was over 25 µM. Turning to `Cc1cc2nc(-c3nc4cc(C)c(C)cc4[nH]3)[nH]c2cc1C` [Compound 2, 5,6,6′,6′-Tetramethyl-1H, 1′H-[2,2′]bibenzoimidazolyl], the pEC50 in data set [1] (setting [4]) is 5.00 to 6.00. Same read-out and setting: under `Cn1c(-c2nc3ccccc3n2C)nc2ccccc21` [Compound 3, 1,1′-Dimethyl-1H,1′H-[2,2′]bibenzoimidazolyl] stands under 4.60.

In the case of `O=[N+]([O-])c1ccc2nc(-c3nc4ccc([N+](=O)[O-])cc4[nH]3)[nH]c2c1` [Compound 5, 6,6′-Dinitro-1H,1′H-[2,2′]bibenzoimidazolyl], in data set [1] (setting [4]), the pEC50 was under 4.60.

In the case of `Fc1cccc2[nH]c(-c3nc4c(F)cccc4[nH]3)nc12` [Compound 6, 4,4′-Difluoro-1H,1′H-[2,2′]bibenzoimidazolyl], the pEC50 in data set [1] (setting [3]) was 8.22; in data set [1] (setting [4]) it was over 6.00.

Turning to `Fc1ccc2[nH]c(-c3nc4cc(F)ccc4[nH]3)nc2c1` [Compound 7, 5,5′-Difluoro-1H,1′H-[2,2′]bibenzoimidazolyl], the figures for the pEC50 in data set [1] (setting [3]) and in data set [1] (setting [4]) were 7.20 and over 6.00, respectively. Take `Clc1ccc2[nH]c(-c3nc4cc(Cl)ccc4[nH]3)nc2c1` [Compound 8, 5,5′-Dichloro-1H,1′H-[2,2′]bibenzoimidazolyl]: in data set [1] (setting [4]), the pEC50 was 5.00 to 6.00. Still for that read-out and setting: under `Brc1ccc2[nH]c(-c3nc4cc(Br)ccc4[nH]3)nc2c1` [Compound 9, 5,5′-Dibromo-1H,1′H-[2,2′]bibenzoimidazolyl] stands 5.00 to 6.00; under `Cc1cccc2[nH]c(-c3nc4c(C)cccc4[nH]3)nc12` [Compound 10, 4,4′-Dimethyl-1H,1′H-[2,2′]bibenzoimidazolyl], under 4.60. Still for that read-out and setting: under `Cc1ccc2[nH]c(-c3nc4cc(C)ccc4[nH]3)nc2c1` [Compound 11, 5,5′-Dimethyl-1H,1′H-[2,2′]bibenzoimidazolyl] stands under 4.60; under `COc1cccc2[nH]c(-c3nc4c(OC)cccc4[nH]3)nc12` [Compound 12, 4,4′-Dimethoxy-1H,1′H-[2,2′]bibenzoimidazolyl], under 4.60; under `COc1ccc2[nH]c(-c3nc4cc(OC)ccc4[nH]3)nc2c1` [Compound 13, 5,5′-Dimethoxy-1H,1′H-[2,2′]bibenzoimidazolyl], 4.60 to 5.00. On the same count and under the same terms, under `COC(=O)c1cccc2[nH]c(-c3nc4c(C(=O)OC)cccc4[nH]3)nc12` [Compound 14, 1H,1′H-[2,2′]Bibenzoimidazolyl-4,4′-dicarboxylic acid dimethyl ester] stands under 4.60; under `COC(=O)c1ccc2[nH]c(-c3nc4cc(C(=O)OC)ccc4[nH]3)nc2c1` [Compound 15, 1H,1′H-[2,2′]Bibenzoimidazolyl-5,5′-dicarboxylic acid dimethyl ester], under 4.60.

Turning to `c1ccc(-c2cccc3[nH]c(-c4nc5c(-c6ccccc6)cccc5[nH]4)nc23)cc1` [Compound 16, 4,4′-Diphenyl-1H,1′H-[2,2′]bibenzoimidazolyl], the melting point is 247 to 250 °C (dec.). For the same compound, in data set [1] (setting [4]), the pEC50 was under 4.60. For the compound `Fc1ccc2[nH]c(-c3nc4c(F)c(F)ccc4[nH]3)nc2c1F` [Compound 17, 4,5,4′,5′-Tetrafluoro-1H,1′H-[2,2′]bibenzoimidazolyl], the pEC50 in data set [1] (setting [4]) is over 6.00.

As to `Fc1cc(F)c2nc(-c3nc4c(F)cc(F)cc4[nH]3)[nH]c2c1` [Compound 18, 4,6,4′,6′-Tetrafluoro-1H,1′H-[2,2′]bibenzoimidazolyl], in data set [1] (setting [4]), the pEC50 was over 6.00. On the same count and under the same terms, with `Fc1cc2nc(-c3nc4cc(F)c(F)cc4[nH]3)[nH]c2cc1F` [Compound 19, 5,6,5′,6′-Tetrafluoro-1H,1′H-[2,2′]bibenzoimidazolyl] the figure was over 6.00; with `c1cnc2nc(-c3nc4ncccc4[nH]3)[nH]c2c1` [Compound 20, 1H,1′H-[2,2′]Bi[imidazo[4,5 b]pyridinyl]], over 6.00.

The compound `c1cc2nc(-c3nc4ccncc4[nH]3)[nH]c2cn1` [Compound 21, 3H,3′H-[2,2′]Bi[imidazo[4,5 c]pyridinyl]] displayed a melting point of over 300 °C. Further, the pEC50 in data set [1] (setting [4]) was 4.60 to 5.00. Consider `NC(=O)c1ncn([C@@H]2O[C@H](CO)[C@@H](O)[C@H]2O)n1` [ribavirin], for which, in the data set on LCMV, the “antiviral activity against LCMV in vitro” value is given as “limited antiviral activity”.
